Series [1] concerns MLLr leukemia cell line MV4-11. Briefly: Cell proliferation assay MV4;11 (CellTiter-Glo, 72 hours). The series is classed as cell-based. To be noted: Homo sapiens; MV4-11 cells, 72 hours, CellTiter-Glo; read-out: MV4; 11 IC50. The protocol: Compounds were evaluated for its capacity to inhibit the proliferation of the MLLr leukemia cell line MV4-11 that harbors an MLL1-AF4 fusion protein. MV4-11 cells were cultured for 72 hours with limiting dilutions of compounds and viability was measured using CellTiter-Glo.
Compounds were dissolved to obtain as 10 mM solution in DMSO. The stock was diluted 1:5 to the top concentration of 2 mM in 100% DMSO. For IC50 determination, serial 1:3.16 dilutions were prepared in 100% DMSO by diluting 20 μL into 43.5 μL of DMSO for 8 concentrations. Each prepared DMSO solution were further diluted 1:500 in the cell culture media to obtain the 2× dosing solutions. The final concentrations of tested compounds in the cell culture media ranged from 0.632 nM to 2000 nM.
MV4-11 cells were cultured in IMDM with 10% FBS and 1× Penicillin-Streptomycin at 5% CO2 and 37° C. A cell suspension was prepared containing 15,000 cells/ml in the culture medium and 100 μL of this suspension was added per well to a 96-well cell culture plate. Then, 100 μL of 2× dosing media containing test compounds were added bringing the total volume to 200 μL. These cells were cultured for 72 hours at 37° C. and 5% CO2 in a humidified incubator.
After 72 hours, the cultured cells were mixed and 100 μL was transferred to a 96-well black plate. Cell Titer Glo (100 μl) was then added to this plate. The plate was mixed with shaking for 15 mins at RT, the luminescence was then measured using Tecan Spark 20M spectrophotometer. Cell Viability (%) was determined by RLU of test/RLU average vehicle control*100 and % max inhibition was determined by 100−(% cell viability remaining at the top concentration of compound).

Another series addresses hERG (Homo sapiens, UniProt Q12809). Briefly: Patch clamp assay (hERG tail currents, whole-cell).

Structures are written as SMILES.

Chain of hERG (Q12809 whole entry): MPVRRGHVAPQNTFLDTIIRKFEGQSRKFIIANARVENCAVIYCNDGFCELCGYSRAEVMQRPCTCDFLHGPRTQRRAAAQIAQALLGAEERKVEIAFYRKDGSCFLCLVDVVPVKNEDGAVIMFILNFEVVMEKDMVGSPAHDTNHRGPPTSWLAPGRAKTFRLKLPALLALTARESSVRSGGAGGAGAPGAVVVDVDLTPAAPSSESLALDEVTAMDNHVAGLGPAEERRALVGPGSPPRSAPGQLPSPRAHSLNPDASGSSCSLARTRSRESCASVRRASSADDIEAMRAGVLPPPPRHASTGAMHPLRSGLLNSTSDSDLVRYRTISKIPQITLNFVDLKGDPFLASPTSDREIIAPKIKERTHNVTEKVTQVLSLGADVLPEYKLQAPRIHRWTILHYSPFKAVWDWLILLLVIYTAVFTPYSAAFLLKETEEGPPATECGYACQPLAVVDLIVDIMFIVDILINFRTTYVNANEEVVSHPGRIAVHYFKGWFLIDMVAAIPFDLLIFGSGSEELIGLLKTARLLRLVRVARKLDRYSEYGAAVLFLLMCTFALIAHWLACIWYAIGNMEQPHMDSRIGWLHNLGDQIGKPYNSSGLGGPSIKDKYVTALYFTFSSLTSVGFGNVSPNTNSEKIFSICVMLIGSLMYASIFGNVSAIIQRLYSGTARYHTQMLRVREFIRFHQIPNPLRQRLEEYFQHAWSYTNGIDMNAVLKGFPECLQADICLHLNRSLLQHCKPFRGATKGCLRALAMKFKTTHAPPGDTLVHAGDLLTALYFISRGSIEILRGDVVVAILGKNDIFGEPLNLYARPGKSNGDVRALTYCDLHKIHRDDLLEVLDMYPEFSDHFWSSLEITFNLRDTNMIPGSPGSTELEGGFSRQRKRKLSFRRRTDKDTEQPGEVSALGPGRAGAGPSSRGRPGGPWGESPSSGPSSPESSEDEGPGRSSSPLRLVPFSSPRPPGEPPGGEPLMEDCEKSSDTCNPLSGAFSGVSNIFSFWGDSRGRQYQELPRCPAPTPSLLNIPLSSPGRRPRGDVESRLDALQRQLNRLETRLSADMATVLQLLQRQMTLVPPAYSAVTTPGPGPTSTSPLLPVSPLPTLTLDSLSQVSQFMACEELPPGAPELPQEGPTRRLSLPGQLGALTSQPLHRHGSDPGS

`CC(C)N(C(=O)c1cc(F)ccc1Oc1cncnc1N1CC2(CCN(C[C@@H]3CC[C@@H](NS(=N)(=O)c4ccccc4)CO3)CC2)C1)C(C)C` (mixture of isomers) [Example 228, 5-Fluoro-N,N-diisopropyl-2-((4-(7-(((2S,5R)-5-(phenylsulfonoamidimidamido)tetrahydro-2H-pyran-2-yl)methyl)-2,7-diazaspiro[3.5]nonan-2-yl)pyrimidin-5-yl)oxy)benzamide]: the IC50 in series [1] was < 100 nM.

Take `CC[S@@](=N)(=O)N[C@@H]1CC[C@@H](CN2CCC3(CC2)CN(c2ncncc2Oc2ccc(F)cc2C(=O)N(C(C)C)C(C)C)C3)OC1` (single isomer, unassigned) [Example 226]: the IC50 in series [1] is 100 to 1000 nM.

Regarding `CC[S@](=N)(=O)N[C@@H]1CC[C@@H](CN2CCC3(CC2)CN(c2ncncc2Oc2ccc(F)cc2C(=O)N(C(C)C)C(C)C)C3)OC1` (single isomer, unassigned) [Example 227], the IC50 in series [1] was < 100 nM.

Take `CC(C)N(C(=O)c1cc(F)ccc1Oc1cncnc1N1CC2(CCN(C[C@@H]3CC[C@@H](N[S@@](=N)(=O)c4ccccc4)CO3)CC2)C1)C(C)C` (single isomer, unassigned) [Example 229]: the IC50 in series [1] is < 100 nM.

For `CC(C)N(C(=O)c1cc(F)ccc1Oc1cncnc1N1CC2(CCN(C[C@@H]3CC[C@@H](N[S@](=N)(=O)c4ccccc4)CO3)CC2)C1)C(C)C` (single isomer, unassigned) [Example 230], in series [1], the IC50 was < 100 nM.

Turning to `CCS(=O)(=O)N[C@@H]1CC[C@@H](CN2CCC3(CC2)CN(c2ncncc2Oc2ccc(F)cc2C(=O)N(C(C)C)[C@@H]2CC[C@H]2O)C3)OC1` (single isomer, unassigned) [Example 256], in series [1], the IC50 is < 100 nM.

In the case of `CCS(=O)(=O)N[C@@H]1CC[C@@H](CN2CCC3(CC2)CN(c2ncncc2Oc2ccc(F)cc2C(=O)N(C(C)C)[C@H]2CC[C@@H]2O)C3)OC1` (single isomer, unassigned) [Example 257], the IC50 in series [1] lay within 100 to 1000 nM.

Turning to `CC(C)N(C)C(=O)c1cc(F)ccc1Oc1cncnc1N1CC2(CCN(C[C@@H]3CC[C@@H](NS(=O)(=O)c4ccn(C)n4)CO3)CC2)C1` [Example 53, Fluoro-N-isopropyl-N-methyl-2-((4-(7-(((2S,5R)-5-((1-methyl-1H-pyrazole)-3-sulfonamido)tetrahydro-2H-pyran-2-yl)methyl)-2,7-diazaspiro[3.5]nonan-2-yl)pyrimidin-5-yl)oxy)benzamide], the IC50 in series [1] was < 100 nM.

With `Cc1nc(S(=O)(=O)N[C@@H]2CC[C@@H](CN3CCC4(CC3)CN(c3ncncc3Oc3ccc(F)cc3C(=O)N(C)C(C)C)C4)OC2)cs1` [Example 54, 5-Fluoro-N-isopropyl-N-methyl-2-((4-(7-(((2S,5R)-5-((2-methylthiazole)-4-sulfonamido)tetrahydro-2H-pyran-2-yl)methyl)-2,7-diazaspiro[3.5]nonan-2-yl)pyrimidin-5-yl)oxy)benzamide], the IC50 in series [1] is < 100 nM.

Turning to `CCN(C(=O)c1cc(F)ccc1Oc1cncnc1N1CC2(CCN(C[C@@H]3CC[C@@H](NS(=O)(=O)C4CCOCC4)CO3)CC2)C1)C(C)C` [Example 67, N-Ethyl-5-fluoro-N-isopropyl-2-((4-(7-(((2S,5R)-5-((tetrahydro-2H-pyran)-4-sulfonamido)tetrahydro-2H-pyran-2-yl)methyl)-2,7-diazaspiro[3.5]nonan-2-yl)pyrimidin-5-yl)oxy)benzamide], the IC50 in series [1] is < 100 nM.

For the compound `CCN(C(=O)c1cc(F)ccc1Oc1cncnc1N1CC2(CCN(C[C@@H]3CC[C@@H](NS(=O)(=O)N4CC(F)(F)C4)CO3)CC2)C1)C(C)C` [Example 70, 2-((4-(7-(((2S,5R)-5-((3,3-Difluoroazetidine)-1-sulfonamido)tetrahydro-2H-pyran-2-yl)methyl)-2,7-diazaspiro[3.5]nonan-2-yl)pyrimidin-5-yl)oxy)-N-ethyl-5-fluoro-N-isopropylbenzamide], the IC50 in series [1] was < 100 nM.

In the case of `CCN(C(=O)c1cc(F)ccc1Oc1cncnc1N1CC2(CCN(C[C@@H]3CC[C@@H](NS(=O)(=O)c4ccc(=O)n(C)c4)CO3)CC2)C1)C(C)C` [Example 74, N-Ethyl-5-fluoro-N-isopropyl-2-((4-(7-(((2S,5R)-5-((1-methyl-6-oxo-1,6-dihydropyridine)-3-sulfonamido)tetrahydro-2H-pyran-2-yl)methyl)-2,7-diazaspiro[3.5]nonan-2-yl)pyrimidin-5-yl)oxy)benzamide], the IC50 in series [1] is < 100 nM.

Regarding `CC(C)N(C(=O)c1cc(F)ccc1Oc1cncnc1N1CC2(CCN(C[C@@H]3CC[C@@H](NS(=O)(=O)C4CCOCC4)CO3)CC2)C1)C(C)C` [Example 79], in series [1], the IC50 was < 100 nM.

With `CC(C)N(C(=O)c1cc(F)ccc1Oc1cncnc1N1CC2(CCN(C[C@@H]3CC[C@@H](NS(=O)(=O)c4ccc(=O)n(C)c4)CO3)CC2)C1)C(C)C` [Example 92, 5-Fluoro-N,N-diisopropyl-2-((4-(7-(((2S,5R)-5-((1-methyl-6-oxo-1,6-dihydropyridine)-3-sulfonamido)tetrahydro-2H-pyran-2-yl)methyl)-2,7-diazaspiro[3.5]nonan-2-yl)pyrimidin-5-yl)oxy)benzamide], the IC50 in series [1] was < 100 nM.

Turning to `CC(C)N(CC(F)F)C(=O)c1cc(F)ccc1Oc1cncnc1N1CC2(CCN(C[C@@H]3CC[C@@H](NS(=O)(=O)C4CCOCC4)CO3)CC2)C1` [Example 98, N-(2,2-Difluoroethyl)-5-fluoro-N-isopropyl-2-((4-(7-(((2S,5R)-5-((tetrahydro-2H-pyran)-4-sulfonamido)tetrahydro-2H-pyran-2-yl)methyl)-2,7-diazaspiro[3.5]nonan-2-yl)pyrimidin-5-yl)oxy)benzamide], the IC50 in series [1] was < 100 nM.

Take `CCn1cc(S(=O)(=O)N[C@@H]2CC[C@@H](CN3CCC4(CC3)CN(c3ncncc3Oc3ccc(F)cc3C(=O)N(CC(F)F)C(C)C)C4)OC2)cn1` [Example 106, N-(2,2-Difluoroethyl)-2-((4-(7-(((2S,5R)-5-((1-ethyl-1H-pyrazole)-4-sulfonamido)tetrahydro-2H-pyran-2-yl)methyl)-2,7-diazaspiro[3.5]nonan-2-yl)pyrimidin-5-yl)oxy)-5-fluoro-N-isopropylbenzamide]: in series [1], the IC50 was < 100 nM.

For the compound `CC(C)N(CC(F)F)C(=O)c1cc(F)ccc1Oc1cncnc1N1CC2(CCN(C[C@@H]3CC[C@@H](NS(N)(=O)=O)CO3)CC2)C1` [Example 240, N-(2,2-Difluoroethyl)-5-fluoro-N-isopropyl-2-((4-(7-(((2S,5R)-5-(sulfamoylamino)tetrahydro-2H-pyran-2-yl)methyl)-2,7-diazaspiro[3.5]nonan-2-yl)pyrimidin-5-yl)oxy)benzamide], the “hERG % Remaining” value on hERG (30 μM compound) was “+++ (≥66%)”.

As to `CC(C)N(C(=O)c1cc(F)ccc1Oc1cncnc1N1CC2(CCN(C[C@@H]3CC[C@@H](NS(=O)(=O)N4CCC4)CO3)CC2)C1)C1COC1` [Example 248, 2-((4-(7-(((2S,5R)-5-(Azetidine-1-sulfonamido)tetrahydro-2H-pyran-2-yl)methyl)-2,7-diazaspiro[3.5]nonan-2-yl)pyrimidin-5-yl)oxy)-5-fluoro-N-isopropyl-N-(oxetan-3-yl)benzamide], the “hERG % Remaining” value at hERG (30 μM compound) is given as “+++ (≥66%)”.

As for `CC(C)N(C(=O)c1cc(F)ccc1Oc1cncnc1N1CC2(CCN(C[C@@H]3CC[C@@H](NS(=O)(=O)N(C)C)CO3)CC2)C1)C1COC1` [Example 249, 2-((4-(7-(((2S,5R)-5-((N,N-Dimethylsulfamoyl)amino)tetrahydro-2H-pyran-2-yl)methyl)-2,7-diazaspiro[3.5]nonan-2-yl)pyrimidin-5-yl)oxy)-5-fluoro-N-isopropyl-N-(oxetan-3-yl)benzamide], the “hERG % Remaining” value at hERG (30 μM compound) was “+++ (≥66%)”.

In the case of `CCS(=O)(=O)N[C@@H]1CC[C@@H](CN2CCC3(CC2)CN(c2ncncc2Oc2ccc(F)cc2C(=O)N(C(C)C)[C@@H]2CC[C@@H]2O)C3)OC1` [Example 258, 2-((4-(7-(((2S,5R)-5-(Ethylsulfonamido)tetrahydro-2H-pyran-2-yl)methyl)-2,7-diazaspiro[3.5]nonan-2-yl)pyrimidin-5-yl)oxy)-5-fluoro-N-((1R,2S)-2-hydroxycyclobutyl)-N-isopropylbenzamide], the “hERG % Remaining” value at hERG (10 μM compound) is “+++ (≥66%)”; on hERG (30 μM compound) it was “++ (233% and ≤66%)”.

On to `CCN(C(=O)c1cc(F)ccc1Oc1cncnc1N1CC2(CCN(C[C@H]3CC[C@H](NS(=O)(=O)CC)CC3)CC2)C1)C(C)C` [SNDX-5613], for which the “hERG % Remaining” value on hERG (1 μM compound) was “+++ (≥66%)”; on hERG (3 μM compound), “+++ (≥66%)”; at hERG (10 μM compound), “++ (233% and ≤66%)”; at hERG (30 μM compound), “++ (233% and ≤66%)”; at hERG (100 μM compound), “+ (<33%)”. In addition, the “hERG IC50 (μM)” value at hERG (hERG stably transfected HEK 293 cells) was “+ (<25 PM)”.

The values above are taken from US20240400564A1 (Syndax Pharmaceuticals, Inc, priority 2021, published 2024).
